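Cells were grown in 96-well plates and exposed to each compound for 48 hours at five concentrations; endpoints were interpolated linearly between bracketing concentrations, or set to the highest concentration if not reached. At the TGI there is no net growth.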
Key:
Experiment in all cases: growth of human tumour cells (NCI), 48 h
786-0 renal = system: 786-0 renal
A498 renal = system: A498 renal
A549 NSCLC = system: A549 NSCLC
ACHN renal = system: ACHN renal
BT-549 breast = system: BT-549 breast
CAKI-1 renal = system: CAKI-1 renal
CCRF-CEM leukemia = system: CCRF-CEM leukemia
COLO 205 colon = system: COLO 205 colon
DU-145 prostate = system: DU-145 prostate
EKVX NSCLC = system: EKVX NSCLC
HCT-116 colon = system: HCT-116 colon
HCT-15 colon = system: HCT-15 colon
HL-60(TB) leukemia = system: HL-60(TB) leukemia
HOP-62 NSCLC = system: HOP-62 NSCLC
HOP-92 NSCLC = system: HOP-92 NSCLC
HS 578T breast = system: HS 578T breast
HT29 colon = system: HT29 colon
IGROV1 ovarian = system: IGROV1 ovarian
K-562 leukemia = system: K-562 leukemia
KM12 colon = system: KM12 colon
LOX IMVI melanoma = system: LOX IMVI melanoma
M14 melanoma = system: M14 melanoma
MALME-3M melanoma = system: MALME-3M melanoma
MCF7 breast = system: MCF7 breast
MDA-MB-231 breast = system: MDA-MB-231 breast
MDA-MB-435 = system: MDA-MB-435
MDA-N = system: MDA-N
MOLT-4 leukemia = system: MOLT-4 leukemia
NCI-H226 lung = system: NCI-H226 lung
NCI-H23 lung = system: NCI-H23 lung
NCI-H460 lung = system: NCI-H460 lung
NCI-H522 lung = system: NCI-H522 lung
NCI/ADR-RES ovarian = system: NCI/ADR-RES ovarian
OVCAR-3 ovarian = system: OVCAR-3 ovarian
OVCAR-4 ovarian = system: OVCAR-4 ovarian
OVCAR-5 ovarian = system: OVCAR-5 ovarian
OVCAR-8 ovarian = system: OVCAR-8 ovarian
PC-3 prostate = system: PC-3 prostate
RPMI-8226 leukemia = system: RPMI-8226 leukemia
RXF 393 renal = system: RXF 393 renal
SF-268 CNS = system: SF-268 CNS
SF-295 CNS = system: SF-295 CNS
SF-539 CNS = system: SF-539 CNS
SK-MEL-2 melanoma = system: SK-MEL-2 melanoma
SK-MEL-28 melanoma = system: SK-MEL-28 melanoma
SK-MEL-5 melanoma = system: SK-MEL-5 melanoma
SK-OV-3 ovarian = system: SK-OV-3 ovarian
SN12C renal = system: SN12C renal
SNB-19 CNS = system: SNB-19 CNS
SR leukemia = system: SR leukemia
SW-620 colon = system: SW-620 colon
T-47D breast = system: T-47D breast
TK-10 renal = system: TK-10 renal
U251 CNS = system: U251 CNS
UACC-257 melanoma = system: UACC-257 melanoma
UACC-62 melanoma = system: UACC-62 melanoma
UO-31 renal = system: UO-31 renal
HCC-2998 colon = system: HCC-2998 colon

Measured: TGI

O=C(O)C1Cc2c([nH]c3ccccc23)C(CCCCO)N1 (stereo not drawn)
not listed: HCC-2998 colon
> 100 µM: all other assays above

CC1=C(C)C2(C#N)C(=O)N3C(=NC(c4ccccc4)NC3c3ccccc3)C2(C#N)C(c2ccccc2)N1 (stereo not drawn)
not listed: OVCAR-3 ovarian | SF-539 CNS
> 100 µM: all other assays above

Source: PubChem BioAssay (NCI)
